Results from PubChem BioAssay (NCI).
Values joined by “and” are separate entries in the source; they are usually repeats but may differ in a detail not shown here. Equal values may be shown once.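 These data come from cells grown in 96-well plates and exposed to compound for 48 hours at five concentrations. GI50 = concentration required for 50% inhibition of growth. TGI marks complete inhibition of growth.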

Legend:
Experiment in all cases: growth of human tumour cells (NCI), 48 h
SR leukemia = system: SR leukemia
SF-268 CNS = system: SF-268 CNS
HOP-62 NSCLC = system: HOP-62 NSCLC
EKVX NSCLC = system: EKVX NSCLC
U251 CNS = system: U251 CNS
MDA-MB-231 breast = system: MDA-MB-231 breast
HCT-15 colon = system: HCT-15 colon
SNB-19 CNS = system: SNB-19 CNS
COLO 205 colon = system: COLO 205 colon
OVCAR-3 ovarian = system: OVCAR-3 ovarian

| Compound | TGI (SR leukemia) | TGI (SF-268 CNS) | GI50 (HOP-62 NSCLC) | TGI (HOP-62 NSCLC) | GI50 (EKVX NSCLC) | TGI (EKVX NSCLC) | GI50 (U251 CNS) | TGI (U251 CNS) | GI50 (MDA-MB-231 breast) | TGI (MDA-MB-231 breast) | GI50 (HCT-15 colon) | TGI (HCT-15 colon) | TGI (SNB-19 CNS) | TGI (COLO 205 colon) | GI50 (OVCAR-3 ovarian) | TGI (OVCAR-3 ovarian) | GI50 (SR leukemia) | GI50 (SF-268 CNS) | GI50 (SNB-19 CNS) | GI50 (COLO 205 colon) |
| --- | --- | --- | --- | --- | --- | --- | --- | --- | --- | --- | --- | --- | --- | --- | --- | --- | --- | --- | --- | --- |
| COc1ccc2cc1Oc1ccc(cc1)CC1c3c(cc(OC)c4c3Oc3cc5c(cc3O4)CCNC5C2)CCN1C (configuration not stated) | 2.51 µM | 3.84 µM | 1.59 µM | 5.06 µM and 2.95 µM | 1.71 µM | 3.73 µM and 3.19 µM | 1.68 µM | 3.2 µM | 1.73 µM | 3.35 µM | 1.86 µM | 3.73 µM and 4.31 µM | 4.32 µM | 3.41 µM | 1.62 µM | 7.41 µM and 3.07 µM |  |  |  |  |
| CC(C)(C)OC(=O)CC(S(=O)(=O)c1ccccc1)S(=O)(=O)c1ccccc1 | 12.1 µM | 34.4 µM | 19.1 µM | 35.4 µM | 19.6 µM | 39.4 µM | 17.2 µM | 35.9 µM | 12 µM | 25.7 µM | 1.87 µM | 3.71 µM | > 100 µM | 3.32 µM | 1.88 µM | 3.29 µM | 3.1 µM | 16.5 µM | > 100 µM | 1.89 µM |
| COc1ccc(N=C2C(=O)Nc3ccc(Br)cc32)cc1 | 28.6 µM | 57.2 µM |  | 88.4 µM |  | 47.1 µM |  | 96.8 µM |  | 35.3 µM |  | 44 µM | > 100 µM | 34.6 µM |  | 62.4 µM |  |  |  |  |
| Cc1nc2sc(C(=O)Nc3cccc(Cl)c3)c(N)c2cc1C(O)c1ccccc1 (configuration not stated) | > 100 µM | 28.3 µM | 1.45 µM | 25.5 µM | 3.39 µM | 26.1 µM | 0.584 µM | > 100 µM | 2.52 µM | 16.9 µM | 0.384 µM | 46.8 µM | 20.3 µM | > 100 µM | 0.587 µM | 21.6 µM | 0.414 µM | 2.66 µM | 2.33 µM | 3.31 µM |
| CCCC/C=C1/CCC(CN(C)C)C1=O (configuration not stated) | 2.99 µM | 5.91 µM |  | 35.2 µM | 2.14 µM | 4.48 µM |  | 4.19 µM |  | 9.03 µM |  | 1.08 µM | 12.3 µM | 3.04 µM |  | 3.72 µM |  |  |  |  |
| COc1ccc([C@H]2c3[nH]c4ccccc4c3C[C@H]3C(=O)N(CCCCCCC(=O)NO)CC(=O)N23)cc1 | > 33.3 µM | > 33.3 µM | 2.45 µM | > 33.3 µM | 13.4 µM | > 33.3 µM | 1.61 µM | > 33.3 µM | 2.27 µM | > 33.3 µM | 9.05 µM | > 33.3 µM | > 33.3 µM | 15 µM | 1.88 µM | 17.4 µM | 1.46 µM | 7.7 µM | 4.34 µM | 2.04 µM |
| COC(=O)c1sc(=S)c2sc(C(=O)OC)c(C(=O)OC)c2c1C(=O)OC | 48.2 µM | > 100 µM | 59.7 µM | > 100 µM | 89.9 µM | > 100 µM | 50.5 µM | > 100 µM | 36.3 µM | > 100 µM | 38 µM | > 100 µM | > 100 µM | > 100 µM | 35.5 µM | > 100 µM | 23.3 µM | 58.8 µM | 86.7 µM | 69.8 µM |
| O=C(NCCNC1=CC(=O)c2nc3ccccc3c3ccnc1c23)c1cnccn1 | > 100 µM | > 100 µM | 18.9 µM | > 100 µM | > 100 µM | > 100 µM | 31 µM | > 100 µM | 58.5 µM | > 100 µM | 38 µM | > 100 µM | > 100 µM | > 100 µM | 2.42 µM | 19.1 µM | 9.26 µM | 31 µM | 42.2 µM | 52 µM |
| COc1cc(/C=C/C(=O)/C=C/c2ccc(-n3ccnc3)cc2)ccc1O | 9.24 µM | 16.2 µM | 3.12 µM | 11.8 µM | 13.2 µM | 42 µM | 2.21 µM | 5.24 µM | 3.47 µM | 13 µM | 2.48 µM | 6.89 µM | 47.7 µM | 10.1 µM | 3.14 µM | 10 µM | 1.67 µM | 3.08 µM | 4.37 µM | 3.26 µM |
| O=C(Nc1ccc(-n2cc(-c3ccncc3)c(-c3ccc(Cl)c(O)c3)n2)cc1)c1ccc(Cl)c(Cl)c1 | > 100 µM | > 100 µM | 0.711 µM | 2.65 µM | 5.81 µM | > 100 µM | 2.65 µM | > 100 µM | 1.17 µM | > 100 µM | 1.12 µM | > 100 µM | > 100 µM | > 100 µM | > 100 µM | > 100 µM | 3.6 µM | > 100 µM | > 100 µM | 4.3 µM |
| COc1cc(OC)c(OC)cc1/C=C\c1ccnc2ccccc12 | > 100 µM | > 86.2 µM |  | > 62.1 µM |  | > 46.3 µM |  | 16.5 µM |  | 28.8 µM |  | > 100 µM | > 74.5 µM | 3.86 µM |  | 7.44 µM |  |  |  |  |
| CSc1ccc2c(c1)N(CCCN(C)C)c1ccccc1S2 | 19.2 µM | 27.2 µM |  | 28.4 µM |  | 35.1 µM |  | 27.1 µM |  | 26.3 µM |  | 30.4 µM | 30.6 µM | 31.7 µM |  | 27.2 µM |  |  |  |  |
| Cc1nc(Nc2ccc(Cl)c(Cl)c2)sc1C(/C=C/c1ccc2c(c1)OCO2)=N/Nc1ccc([N+](=O)[O-])cc1[N+](=O)[O-] | > 100 µM | > 100 µM |  | > 84 µM |  | > 100 µM |  | > 100 µM |  | > 100 µM |  | > 100 µM | > 100 µM | > 100 µM |  | > 100 µM |  |  |  |  |
| C=C1CCC2C(C)(CO)C(O)CCC2(C)C1C/C=C1\C(=O)OCC1O (configuration not stated) | 42.5 µM | > 100 µM |  | 54.4 µM |  | 99.7 µM |  | 23.1 µM |  | 58.9 µM |  | 39.5 µM | > 100 µM | 27.9 µM |  | 21.2 µM |  |  |  |  |
| COc1ccccc1CNCCCN1C(=O)c2ccc3c4c(ccc(c24)C1=O)C(=O)N(CCCNCCCCN)C3=O | 0.82 µM | 1.68 µM | 0.546 µM | 2.1 µM | 1.15 µM | 2.82 µM | 0.206 µM | 0.731 µM | 0.236 µM | 2.78 µM | 1.85 µM | 10.8 µM | 2.58 µM | 0.263 µM | 0.304 µM | 0.81 µM | 0.0928 µM | 0.29 µM | 0.51 µM | 0.125 µM |
| CNc1ccc(CSc2ccc(C)cc2)cc1 | 90.1 µM | > 100 µM | > 100 µM | > 100 µM | 15.3 µM | > 100 µM | 9.85 µM | > 100 µM | 2.45 µM | 11.7 µM | 12.6 µM | 35.6 µM | > 100 µM | 29.3 µM | 11.7 µM | > 100 µM | 6.15 µM | 14.7 µM | 38.6 µM | 15.7 µM |
| COc1ccc(-c2nc3sccn3c2/C=C/C(=O)c2cc(OC)c(OC)c(OC)c2)cc1 | > 28.2 µM | > 100 µM | 2.53 µM | > 25.7 µM | 3.1 µM | > 100 µM | 3.04 µM | > 100 µM | 3.28 µM | > 100 µM | 3.33 µM | > 83 µM | > 100 µM | 13 µM | 2.34 µM | 7.37 µM | 2.41 µM | 2.76 µM | 3.32 µM | 2.82 µM |
| CC(C)(C)c1cnc(CSc2cnc(NC(=O)C3CCNCC3)s2)o1 | 1.6 µM | 2.48 µM and > 3.39 µM | 0.282 µM and 0.343 µM | 7.06 µM and > 8.87 µM | 0.427 µM | > 10 µM | 0.193 µM and 0.2 µM | 27.6 µM and > 10 µM | 0.214 µM and 0.234 µM | 5.34 µM and > 6.43 µM | 4.76 µM and > 6.31 µM | > 100 µM | > 100 µM | 0.207 µM and 0.24 µM | 0.223 µM and 0.181 µM | 3.61 µM and > 2.95 µM | 0.0346 µM and 0.0265 µM | 0.185 µM and 0.281 µM | 0.244 µM and 0.259 µM | 0.0687 µM and 0.0561 µM |
| c1ccc(-c2nc3ccccc3[nH]2)c(OCCCCCOc2ccccc2-c2nc3ccccc3[nH]2)c1 | 13.1 µM | 23.2 µM | 22.1 µM | 52.5 µM | 11.8 µM | 32.7 µM | 12.5 µM | 25.6 µM | 12.2 µM | 29.3 µM | 4.64 µM | 18.4 µM | 31.9 µM | 31.9 µM | 12 µM | 24.7 µM | 2.27 µM | 3.44 µM | 14.4 µM | 8.49 µM |
